Laboratory results as given in patent publication US7317025B2, “Non-peptidic NPY Y2 receptor inhibitors” (Johnson & Johnson Pharmaceutical Research & Development, LLC, priority 2003, dated 2008).
Read-outs that look alike come from different tables or passages of the source.

Target: T1, Y2 receptors (Homo sapiens, UniProt P49146)
T1 construct: KAN-Ts endogenously expressing Y2 receptors; endogenous in cells; host or cells: KAN-Ts cells (membrane preparation)
T1 sequence (P49146 1-381): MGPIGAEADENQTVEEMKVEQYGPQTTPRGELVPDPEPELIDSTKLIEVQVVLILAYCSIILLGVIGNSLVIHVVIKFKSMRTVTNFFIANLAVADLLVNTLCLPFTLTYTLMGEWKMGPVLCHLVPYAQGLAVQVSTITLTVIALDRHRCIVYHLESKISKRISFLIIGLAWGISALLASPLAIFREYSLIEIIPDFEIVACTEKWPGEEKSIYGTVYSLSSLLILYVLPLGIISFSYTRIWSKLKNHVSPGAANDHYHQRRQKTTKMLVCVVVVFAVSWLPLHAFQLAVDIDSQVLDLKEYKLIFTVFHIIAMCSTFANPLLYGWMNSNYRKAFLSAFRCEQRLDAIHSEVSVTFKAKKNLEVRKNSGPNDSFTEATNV
Assay: Radioligand binding assay, [125I]PYY, KAN-Ts membranes
Protocol: Radioligand Binding Assay
KAN-Ts endogenously expressing Y2 receptors were used for the radioligand binding assay. Cells were grown to confluence on 150 cm^2 tissue culture plates, washed with phosphate-buffered saline (PBS), and scraped into 50 mL tubes. After centrifugation, the supernatant was aspirated, and the pellets frozen and stored at −80° C. Thawed pellets were homogenized with a polytron tissue grinder for 15 sec in 20 mM Tris-HCl, 5 mM EDTA. The homogenate was centrifuged at 800×g for 5 min and the collected supernatant was recentrifuged at 25000×g for 25 min. The resulting pellet was resuspended in binding buffer (20 mM HEPES, 120 mM NaCl, 0.22 mM KH2PO4, 1.3 mM CaCl2, 0.8 mM MgSO4). Membranes were incubated with [^125I]PYY (80 pM) in the presence or absence of test compound for 1 h at rt. The reaction was stopped by filtration through GF/C filter plates pre-soaked in 0.3% polyethylenimine and subsequently washed with Tris 50 mM, 5 mM EDTA buffer. Plates were dried for 1 h in a 55° C. oven, scintillation fluid was added and the radioactivity was counted in a Packard TopCount. Specific binding to the NPY receptor subtypes was determined by radioactivity that was bound in the presence of […] NPY. Each binding experiment was repeated three to eight times, each in duplicate. IC50 values (i.e. concentration of unlabelled peptide or antagonist required to compete for 50% of specific binding to the radioligand) were calculated using the GraphPad Prism software (GraphPad Software Inc., San Diego Calif.) with a fit to a sigmoidal dose response curve. Data were expressed as pIC50 values where pIC50=−log IC50.

[1] = membranes of KAN-Ts cells endogenously expressing Y2 receptors, [125I]PYY (80 pM), 1 h at rt

Structure (SMILES) | IC50 [1] [µM] | IC50 [µM]
CC(=O)N1CCc2ccc(N(C(=O)/C=C/c3ccccc3)C3CCN(Cc4ccccc4)C3)cc21 (stereo not drawn) [Example 46, trans-N-(1-Acetyl-2,3-dihydro-1H-indol-6-yl)-N-(1-benzyl-pyrrolidin-3-yl)-3-phenyl-acrylamide] | 18 | 
CC(=O)N1CCc2ccc(N(C(=O)/C=C/c3ccccc3)C3CCCN(Cc4ccccc4)C3)cc21 (stereo not drawn) [Example 45, trans-N-(1-Acetyl-2,3-dihydro-1H-indol-6-yl)-N-(1-benzyl-piperidin-3-yl)-3-phenyl-acrylamide] | 16 | 
CC(=O)N1CCc2ccc(N(CCCNCc3ccccc3)C(=O)/C=C/c3ccccc3)cc21 [Example 47, trans-N-(1-Acetyl-2,3-dihydro-1H-indol-6-yl)-N-(3-benzylamino-propyl)-3-phenyl-acrylamide] | 12 | 
C=CCN(CCCN(C(=O)/C=C/c1ccccc1)c1ccc2c(c1)N(C(C)=O)CC2)Cc1ccccc1 [Example 48, trans-N-(1-Acetyl-2,3-dihydro-1H-indol-6-yl)-N-[3-(allyl-benzyl-amino)-propyl]-3-phenyl-acrylamide] | 12 | 
CC(=O)N1CCc2ccc(N(C(=O)/C=C/c3ccccc3)C3CCN(C(=O)c4ccccc4)CC3)cc21 [Example 39, trans-N-(1-Acetyl-2,3-dihydro-1H-indol-6-yl)-N-(1-benzoyl-piperidin-4-yl)-3-phenyl-acrylamide] |  | 29
